Drawing on BindingDB's records for doi:10.1111/j.1747-0285.2007.00535.x (Abbott Laboratories, 2007), this text covers Ki for 3 molecules.

For the test, the target named is Heat shock protein HSP 90-alpha (Homo sapiens, UniProt P07900). The test can be described thus: FRET Assay. Conditions: pH 7.5; 25 °C.

Structures are written as SMILES.

One may read the Ki as a measure of affinity in units of concentration, obtained from inhibition or displacement. With `Cc1cc(-c2ccc(Cl)cc2Cl)nc(N)n1` [HSP90 Inhibitor, 4], the inhibition constant (Ki) was found to be 170 nM. In the case of `Nc1nc(Cl)cc(-c2ccc(Cl)cc2Cl)n1` [HSP90 Inhibitor, 5], the Ki was 60 nM. Consider `Cc1cc(C=Cc2ccccc2/C=N/N2CCOC2=O)nc(N)n1` [HSP90 Inhibitor, 7], for which the affinity corresponds to a Ki of 4000 nM. Compared with the last molecule, the Ki is about 67-fold higher.
